Measured values taken from patent US20090325959A1 (priority 2008, published 2009).

Tests used:
NIH/3T3 cells = experiment: NIH/3T3 cell morphology assay (actin cytoskeleton disruption); type: cell-based; details: score 0 (no effect) to 4 (complete disruption) of the actin cytoskeleton; 60 minutes
Protocol: NIH/3T3 cells were grown in DMEM-H containing glutamine and 10% Colorado Calf Serum. Cells were passaged regularly prior to reaching confluence. Eighteen to 24 hours prior to experimentation, the cells were plated onto Poly-L-Lysine-coated glass bottom 24-well plates. On the day of experimentation, the cell culture medium was removed and was replaced with the same medium containing from 10 nM to 25 μM of the test compound, and the cells were incubated for 60 minutes at 37° C. The culture medium was then removed and the cells were washed with warmed PBS and fixed for 10 minutes with warmed 4% paraformaldehyde. The cells were permeabilized with 0.5% Triton-X, stained with TRITC-conjugated phalloidin and imaged using a Nikon Eclipse E600 epifluorescent microscope to determine the degree of actin disruption. Results were expressed as a numerical score indicating the observed degree of disruption of the actin cytoskeleton at the test concentration, ranging from 0 (no effect) to 4 (complete disruption), and were the average of at least 2 determinations.

ROCK2 = target: T1, ROCK2 (Homo sapiens, UniProt O75116); experiment: Rho kinase inhibition assay (IMAP fluorescence polarization), ROCK2; type: biochemical; details: 10 μM ATP; read-out: ROCK2 Ki, Avg;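 note: kinase reaction started with 10 µM ATP and run 60 min at room temperature, then phosphorylated substrate captured on IMAP beads for 30 min and fluorescence polarization read in mP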
T1 construct: purchased Upstate/Chemicon 14-451
Protocol: (§1) Following the pre-incubation, 10 μM ATP was added to initiate the reaction. After 60 minutes at room temperature, Molecular Devices IMAP™ binding solution was added to bind phosphorylated substrate. After 30 minutes of incubation in the presence of the IMAP™ beads, the fluorescence polarization was read and the ratio was reported as mP. IC50 values for compounds and EC50 values for ATP were calculated using the Prism software from Graphpad.

ROCK1 = target: T2, ROCK1 (Homo sapiens, UniProt Q13464); experiment: Rho kinase inhibition assay (IMAP fluorescence polarization), ROCK1; type: biochemical; details: Avg, 10 μM ATP;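 note: kinase reaction run 60 min at room temperature, then phosphorylated substrate captured on IMAP beads for 30 min, with fluorescence polarization read in mP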
T2 construct: purchased Upstate/Chemicon 14-601
Protocol: as §1

human neutrophils = experiment: Human neutrophil chemotaxis induced by fMLP (modified Boyden chamber); type: cell-based; details: Neutrophil, 1 h, 1 μM fMLP challenge, one hour, read-out: Chemotaxis Avg. IC50
Excerpt: This assay is an in vitro assay of neutrophil chemotaxis that can be used to evaluate the ability of Rho Kinase inhibitor compounds of Formula I or II to inhibit the migration of human neutrophils, an inflammatory cell that has been implicated in the pathophysiology of allergic conjunctivitis.
Peripheral blood from healthy human volunteers was collected and the neutrophils were isolated by Ficoll-paque density centrifugation followed by dextran sedimentation and hypotonic lysis of the red blood cells. Neutrophil chemotaxis was assessed using a modified Boyden Chamber (Neuroprobe, 96-well) with a 3 μm pore polycarbonate membrane. The ability of the tested compounds to block chemotaxis induced by a 1 μM fMLP challenge during a one hour incubation at 37° C. with 5% CO2 was assessed in a dose response manner.

[1] = tested on: ova-sensitized, ova-challenged mice; experiment: Prevention of airway hyperreactivity (Penh, methacholine) in mouse ovalbumin sensitization model; type: in vivo; details: days 27 to 31
Protocol: The anti-inflammatory dosing paradigm consists of dosing the animals once a day starting on day 27 and finishing on either day 30 or 31 (1 hr prior to the aerosolized ovalbumin challenges on days 28 to 30) but not on day 32 when hyperreactivity evaluation occurs. […] Exposure to the methacholine doses consisted of a 3 minute period during which a nebulizer was aerosolizing the methacholine and an additional 3 minute period following the cessation of nebulization. […] Enhanced pause (Penh), a unitless index of airway hyperreactivity, is derived from the expiratory side of the respiratory waveform measured via the plethysmograph and is used as an indirect measure of airway resistance and hyperreactivity. […] Following the methacholine dose response, BALF was collected and all animals were anesthetized, bled and euthanized. […] The Penh value at each of the dose levels of methacholine represents the 6-minute average response. Change from baseline (CFB) in Penh was calculated at each methacholine dose and the area under the curve (AUC) for these CFB values was calculated using the trapezoidal rule. This same approach was applied for each mouse across multiple experiments. […] Data from equal experimental conditions across experiments performed on different days were pooled for statistical analysis and data reporting. […] A random intercept for each experiment was assumed to account for possible similarities of the results obtained from a given experiment (i.e., as a “blocking effect”). […] For FIG. 9, linear AUC values from compound treated mice were reported as a percent of linear AUC values from vehicle-treated ovalbumin-sensitized/ovalbumin-challenged (asthmatic) mice.

T1 sequence (O75116 11-552 limits assumed): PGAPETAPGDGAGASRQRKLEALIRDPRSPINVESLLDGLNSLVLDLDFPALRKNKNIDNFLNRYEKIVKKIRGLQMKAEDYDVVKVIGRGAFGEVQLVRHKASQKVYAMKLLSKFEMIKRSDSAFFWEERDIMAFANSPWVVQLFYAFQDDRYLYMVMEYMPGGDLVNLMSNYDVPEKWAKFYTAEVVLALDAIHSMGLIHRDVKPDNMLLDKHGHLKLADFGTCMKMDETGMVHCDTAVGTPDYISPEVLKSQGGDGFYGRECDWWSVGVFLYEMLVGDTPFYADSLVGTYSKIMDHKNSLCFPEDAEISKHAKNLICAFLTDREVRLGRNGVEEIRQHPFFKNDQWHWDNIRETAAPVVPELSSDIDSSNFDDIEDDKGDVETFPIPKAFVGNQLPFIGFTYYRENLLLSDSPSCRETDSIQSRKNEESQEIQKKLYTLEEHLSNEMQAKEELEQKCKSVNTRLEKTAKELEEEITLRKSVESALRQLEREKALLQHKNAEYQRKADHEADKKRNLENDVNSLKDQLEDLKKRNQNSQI
T2 sequence (Q13464 17-535 limits assumed): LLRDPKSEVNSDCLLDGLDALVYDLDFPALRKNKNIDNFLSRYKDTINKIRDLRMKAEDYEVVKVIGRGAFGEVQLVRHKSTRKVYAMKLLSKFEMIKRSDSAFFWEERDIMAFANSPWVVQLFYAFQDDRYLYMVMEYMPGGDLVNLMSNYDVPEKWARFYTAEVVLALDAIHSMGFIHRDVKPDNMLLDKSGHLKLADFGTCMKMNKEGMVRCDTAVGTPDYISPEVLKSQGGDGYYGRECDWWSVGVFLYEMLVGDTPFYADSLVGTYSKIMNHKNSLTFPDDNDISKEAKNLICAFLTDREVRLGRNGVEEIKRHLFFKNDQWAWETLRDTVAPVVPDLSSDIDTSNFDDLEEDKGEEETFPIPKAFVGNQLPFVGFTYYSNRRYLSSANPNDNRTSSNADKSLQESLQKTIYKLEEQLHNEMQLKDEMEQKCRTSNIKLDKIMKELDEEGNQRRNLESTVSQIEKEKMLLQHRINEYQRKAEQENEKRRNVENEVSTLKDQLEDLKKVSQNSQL

SMILES | Cell score at 1 μM (NIH/3T3 cells) | further results
Clc1ccc(CN2CCC(Nc3ccc4[nH]ncc4c3)C2)cc1Cl (stereo not shown) [Compound 1.062, N-(1-(3,4-dichlorobenzyl)pyrrolidin-3-yl)-1H-indazol-5-amine] | 2.3 | 
Cc1ccc(CN2CCCC(Nc3ccc4[nH]ncc4c3)C2)c(C)c1 (stereo not shown) [Compound 1.024, N-(1-(2,4-dimethylbenzyl)piperidin-3-yl)-1H-indazol-5-amine] | 2.4 | 
OCCOc1cccc(CN2CCCC(Nc3ccc4[nH]ncc4c3)C2)c1 (stereo not shown) [Compound 1.039, 2-(3-((3-(1H-indazol-5-ylamino)piperidin-1-yl)methyl)phenoxy)ethanol] | 2 | Ki (ROCK2): 24.7 nM; Ki (ROCK1): 209 nM
CSc1ccc(CN2CCCC(Nc3ccc4[nH]ncc4c3)C2)cc1 (stereo not shown) [Compound 1.008, N-(1-(4-(methylthio)benzyl)piperidin-3-yl)-1H-indazol-5-amine] | 2 | Ki (ROCK2): 3.9 nM; Ki (ROCK1): 30.5 nM
CS(=O)(=O)c1cccc(CN2CCCC(Nc3ccc4[nH]ncc4c3)C2)c1 (stereo not shown) [Compound 1.048, N-(1-(3-(methylsulfonyl)benzyl)piperidin-3-yl)-1H-indazol-5-amine] | 1.5 | 
CS(=O)(=O)c1ccc(CN2CCC(Nc3ccc4[nH]ncc4c3)C2)cc1 (stereo not shown) [Compound 1.004, N-(1-(4-(methylsulfonyl)benzyl)pyrrolidin-3-yl)-1H-indazol-5-amine] | 1.8 | 
c1cc2cc(CN3CCCC(Nc4ccc5[nH]ncc5c4)C3)ccc2o1 (stereo not shown) [Compound 1.052, N-(1-(benzofuran-5-ylmethyl)piperidin-3-yl)-1H-indazol-5-amine] | 2.8 | 
C[C@@H](N)[C@H]1CC[C@H](C(=O)Nc2ccncc2)CC1 [Compound Y-27632, reference compound] |  | IC50 (human neutrophils): 6760 nM; log10AUC (Penh) ([1]; 30 μmol/kg/oral): 1.9942
FC(F)(F)c1cccc(CN2CCC(Nc3cccc4cnccc34)C2)c1 (stereo not shown) [Compound 2.018, N-(1-(3-(trifluoromethyl)benzyl)pyrrolidin-3-yl)isoquinolin-5-amine] | 1.8 | 
C[C@@H]1C[C@H]2[C@@H]3CCC4=CC(=O)C=C[C@]4(C)[C@@]3(F)[C@@H](O)C[C@]2(C)[C@@]1(O)C(=O)CO [Dexamethasone, dexamethasone, reference compound] |  | log10AUC (Penh) ([1]; 1 mg/kg/oral): 2.0216
c1ccc(CN2CCC(Nc3cccc4cnccc34)C2)cc1 (stereo not shown) [Compound 2.006, N-(1-benzylpyrrolidin-3-yl)isoguinolin-5-amine] | 2.8 | 
Clc1ccc(CN2CCC(Nc3cccc4cnccc34)C2)cc1Cl (stereo not shown) [Compound 2.016, N-(1-(3,4-dichlorobenzyl)pyrrolidin-3-yl)isoquinolin-5-amine] | 1.8 | Ki (ROCK2): 42.4 nM; Ki (ROCK1): 101 nM
CS(=O)(=O)Cc1cccc(CN2CCCC(Nc3ccc4[nH]ncc4c3)C2)c1 (stereo not shown) [Compound 1.041, N-(1-(3-(methylsulfonylmethyl)benzyl)piperidin-3-yl)-1H-indazol-5-amine] | 2.5 | 
Oc1cccc(CN2CCCC(Nc3ccc4[nH]ncc4c3)C2)c1 (stereo not shown) [Compound 1.046, 3-((3-(1H-indazol-5-ylamino)piperidin-1-yl)methyl)phenol] | 2.5 | 
C#Cc1ccc(CN2CCCC(Nc3ccc4[nH]ncc4c3)C2)cc1 (stereo not shown) [Compound 1.034, N-(1-(4-ethynylbenzyl)piperidin-3-yl)-1H-indazol-5-amine] | 2 | IC50 (human neutrophils): 5600 nM; Ki (ROCK2): 5.3 nM; Ki (ROCK1): 36 nM
CS(=O)(=O)Nc1cccc(CN2CCCC(Nc3ccc4[nH]ncc4c3)C2)c1 (stereo not shown) [Compound 1.051, N-(3-((3-(1H-indazol-5-ylamino)piperidin-1-yl)methyl)phenyl)methanesulfonamide] | 2.5 | Ki (ROCK2): 3.8 nM; Ki (ROCK1): 37.2 nM
OCc1ccc(CN2CCCC(Nc3ccc4[nH]ncc4c3)C2)cc1 (stereo not shown) [Compound 1.025, (4-((3-(1H-indazol-5-ylamino)piperidin-1-yl)methyl)phenyl)methanol] | 2 | 
COc1ccc(CN2CCC(Nc3cccc4cnccc34)C2)cc1 (stereo not shown) [Compound 2.017, N-(1-(4-methoxybenzyl)pyrrolidin-3-yl)isoquinolin-5-amine] | 2 | 
Cc1cccc(CN2CCCC(Nc3ccc4[nH]ncc4c3)C2)c1 (stereo not shown) [Compound 1.066, N-(1-(3-methylbenzyl)piperidin-3-yl)-1H-indazol-5-amine] | 2 | 
